According to patent US20240415914A1, “Water Dispersible Cannabinoid Compositions” (priority 2021, published 2024):

Assay: Stability of cannabinoid and Vitamin E components of Beverage 1 (AB White) stored at 8° C. and 21-25° C., LCMSMS over 570 days
Assay type: physicochemical
Details: for Stability in AB White, 8° C. (content by LCMSMS): beverage stored at 8° C.; for Stability in AB White, 21-25° C. (content by LCMSMS): beverage stored at 21-25° C.
Protocol: The LCMSMS was calibrated for 0-1000 ng/ml cannabinoids with the same resin material used in the preparation of the concentrates. At each time period, 100 ml of beverage was diluted with 10 ml of methanol and injected into the LCMSMS for analysis.

CCCc1cc(O)c2c(c1)OC(C)(C)[C@@H]1CCC(C)=C[C@@H]21 [THCV, delta-9-tetrahydrocannabivarin]
Stability in AB White, 8° C. (content by LCMSMS) (day 0): 3.6 µg/mL
Stability in AB White, 8° C. (content by LCMSMS) (day 1): 3.54 µg/mL
Stability in AB White, 8° C. (content by LCMSMS) (day 2): 3.60 µg/mL
Stability in AB White, 8° C. (content by LCMSMS) (day 3): 3.55 µg/mL
Stability in AB White, 8° C. (content by LCMSMS) (day 5): 3.58 µg/mL
Stability in AB White, 8° C. (content by LCMSMS) (day 8): 3.60 µg/mL
Stability in AB White, 8° C. (content by LCMSMS) (day 9): 3.61 µg/mL
Stability in AB White, 8° C. (content by LCMSMS) (day 10): 3.58 µg/mL
Stability in AB White, 8° C. (content by LCMSMS) (day 11): 3.59 µg/mL
Stability in AB White, 8° C. (content by LCMSMS) (day 12): 3.50 µg/mL
Stability in AB White, 8° C. (content by LCMSMS) (day 15): 3.56 µg/mL
Stability in AB White, 8° C. (content by LCMSMS) (day 16): 3.57 µg/mL
Stability in AB White, 8° C. (content by LCMSMS) (day 17): 3.61 µg/mL
Stability in AB White, 8° C. (content by LCMSMS) (day 18): 3.59 µg/mL
Stability in AB White, 8° C. (content by LCMSMS) (day 19): 3.51 µg/mL
Stability in AB White, 8° C. (content by LCMSMS) (day 22): 3.60 µg/mL
Stability in AB White, 8° C. (content by LCMSMS) (day 23): 3.55 µg/mL
Stability in AB White, 8° C. (content by LCMSMS) (day 24): 3.56 µg/mL
Stability in AB White, 8° C. (content by LCMSMS) (day 25): 3.56 µg/mL
Stability in AB White, 8° C. (content by LCMSMS) (day 26): 3.63 µg/mL
Stability in AB White, 8° C. (content by LCMSMS) (day 29): 3.52 µg/mL
Stability in AB White, 8° C. (content by LCMSMS) (day 30): 3.59 µg/mL
Stability in AB White, 8° C. (content by LCMSMS) (day 60): 3.58 µg/mL
Stability in AB White, 8° C. (content by LCMSMS) (day 90): 3.56 µg/mL
Stability in AB White, 8° C. (content by LCMSMS) (day 120): 3.56 µg/mL
Stability in AB White, 8° C. (content by LCMSMS) (day 150): 3.55 µg/mL
Stability in AB White, 8° C. (content by LCMSMS) (day 180): 3.59 µg/mL
Stability in AB White, 8° C. (content by LCMSMS) (day 210): 3.44 µg/mL
Stability in AB White, 8° C. (content by LCMSMS) (day 240): 3.56 µg/mL
Stability in AB White, 8° C. (content by LCMSMS) (day 270): 3.47 µg/mL
Stability in AB White, 8° C. (content by LCMSMS) (day 300): 3.46 µg/mL
Stability in AB White, 8° C. (content by LCMSMS) (day 330): 3.52 µg/mL
Stability in AB White, 8° C. (content by LCMSMS) (day 360): 3.50 µg/mL
Stability in AB White, 8° C. (content by LCMSMS) (day 390): 3.47 µg/mL
Stability in AB White, 8° C. (content by LCMSMS) (day 420): 3.49 µg/mL
Stability in AB White, 8° C. (content by LCMSMS) (day 450): 3.44 µg/mL
Stability in AB White, 8° C. (content by LCMSMS) (day 480): 3.44 µg/mL
Stability in AB White, 8° C. (content by LCMSMS) (day 510): 3.34 µg/mL
Stability in AB White, 8° C. (content by LCMSMS) (day 540): 3.32 µg/mL
Stability in AB White, 8° C. (content by LCMSMS) (day 570): 3.30 µg/mL
Stability in AB White, 21-25° C. (content by LCMSMS) (day 0): 3.6 µg/mL
Stability in AB White, 21-25° C. (content by LCMSMS) (day 1): 3.48 µg/mL
Stability in AB White, 21-25° C. (content by LCMSMS) (day 2): 3.58 µg/mL
Stability in AB White, 21-25° C. (content by LCMSMS) (day 3): 3.54 µg/mL
Stability in AB White, 21-25° C. (content by LCMSMS) (day 5): 3.55 µg/mL
Stability in AB White, 21-25° C. (content by LCMSMS) (day 8): 3.63 µg/mL
Stability in AB White, 21-25° C. (content by LCMSMS) (day 9): 3.55 µg/mL
Stability in AB White, 21-25° C. (content by LCMSMS) (day 10): 3.55 µg/mL
Stability in AB White, 21-25° C. (content by LCMSMS) (day 11): 3.59 µg/mL
Stability in AB White, 21-25° C. (content by LCMSMS) (day 12): 3.47 µg/mL
Stability in AB White, 21-25° C. (content by LCMSMS) (day 15): 3.48 µg/mL
Stability in AB White, 21-25° C. (content by LCMSMS) (day 16): 3.60 µg/mL
Stability in AB White, 21-25° C. (content by LCMSMS) (day 17): 3.51 µg/mL
Stability in AB White, 21-25° C. (content by LCMSMS) (day 18): 3.50 µg/mL
Stability in AB White, 21-25° C. (content by LCMSMS) (day 19): 3.59 µg/mL
Stability in AB White, 21-25° C. (content by LCMSMS) (day 22): 3.52 µg/mL
Stability in AB White, 21-25° C. (content by LCMSMS) (day 23): 3.57 µg/mL
Stability in AB White, 21-25° C. (content by LCMSMS) (day 24): 3.63 µg/mL
Stability in AB White, 21-25° C. (content by LCMSMS) (day 25): 3.54 µg/mL
Stability in AB White, 21-25° C. (content by LCMSMS) (day 26): 3.55 µg/mL
Stability in AB White, 21-25° C. (content by LCMSMS) (day 29): 3.62 µg/mL
Stability in AB White, 21-25° C. (content by LCMSMS) (day 30): 3.48 µg/mL
Stability in AB White, 21-25° C. (content by LCMSMS) (day 60): 3.50 µg/mL
Stability in AB White, 21-25° C. (content by LCMSMS) (day 90): 3.47 µg/mL
Stability in AB White, 21-25° C. (content by LCMSMS) (day 120): 3.45 µg/mL
Stability in AB White, 21-25° C. (content by LCMSMS) (day 150): 3.54 µg/mL
Stability in AB White, 21-25° C. (content by LCMSMS) (day 180): 3.52 µg/mL
Stability in AB White, 21-25° C. (content by LCMSMS) (day 210): 3.40 µg/mL
Stability in AB White, 21-25° C. (content by LCMSMS) (day 240): 3.41 µg/mL
Stability in AB White, 21-25° C. (content by LCMSMS) (day 270): 3.56 µg/mL
Stability in AB White, 21-25° C. (content by LCMSMS) (day 300): 3.52 µg/mL
Stability in AB White, 21-25° C. (content by LCMSMS) (day 330): 3.55 µg/mL
Stability in AB White, 21-25° C. (content by LCMSMS) (day 360): 3.49 µg/mL
Stability in AB White, 21-25° C. (content by LCMSMS) (day 390): 3.40 µg/mL
Stability in AB White, 21-25° C. (content by LCMSMS) (day 420): 3.46 µg/mL
Stability in AB White, 21-25° C. (content by LCMSMS) (day 450): 3.47 µg/mL
Stability in AB White, 21-25° C. (content by LCMSMS) (day 480): 3.30 µg/mL
Stability in AB White, 21-25° C. (content by LCMSMS) (day 510): 3.32 µg/mL
Stability in AB White, 21-25° C. (content by LCMSMS) (day 540): 3.44 µg/mL
Stability in AB White, 21-25° C. (content by LCMSMS) (day 570): 3.30 µg/mL
